Assay: Monitoring of the plasma concentration of the main oligosaccharides of a VLMWH in human volunteers (plasma filtration + anion-exchange HPLC)
Type: in vivo
Description: A plasma sample with a volume of between 100 and 1000 μl is withdrawn and, if appropriate, the internal standard is added to the latter.
After homogenization, the resulting solution is introduced into a 30 kD Ultrafree 05 ultrafiltration cartridge (Millipore) rinsed beforehand with 250 μl of water by centrifuging at 10 000 rev/min for 5 minutes. The plasma is introduced into the upper part of the cartridge once or twice, if the amounts to be filtered are greater than 500 μl.
The cartridge is centrifuged at 10 000 rev/min for between 1 and 2 hours and then the filtrate is withdrawn. If appropriate, the second part of the plasma to be filtered is introduced into the upper part of the cartridge and the latter is again centrifuged. The exact amount of plasma introduced will have been weighed. The cartridge is centrifuged until the protein residue in the upper part of the cartridge represents no more than approximately 10% of the initial part.
The filtrate is withdrawn and 210 μl of 3M KCl per ml of plasma filtered are added to the concentrate.
After homogenization, the cartridge is centrifuged at 10 000 rev/min for between 1 and 4 hours. The cartridge is centrifuged until the protein residue in the upper part of the cartridge represents no more than approximately 10% of the initial part.
The second filtrate is withdrawn and 210 μl of 3M KCl per ml of plasma filtered are added a second time to the concentrate.
The third filtrate is withdrawn and 250 μl of water per ml of plasma filtered are added.
The filtrates are combined and diluted 5 fold in water, and the whole is injected directly in anion-exchange HPLC. Immediately before injection, the pH of the injected solution is adjusted to 3 by addition of 1N HCl.
The filtered plasma is analyzed by anion-exchange HPLC.
The columns used are IonPAc As11 columns (Dionex), with a length of 25 cm and an internal diameter of 2 mm. The detector used is a UV spectrophotometer equipped with an array of diodes.
The whole of the […] is injected after adjustment of the pH to 3 by addition of N HCl. The flow rate chosen is 0.22 ml/min; the column temperature is 40° C.
Elution is carried out in gradient mode. The two solutions used are:
Solvent A: NaH2PO4 2.5 mM, brought to pH 2.9 by addition of H3PO4
Solvent B: NaClO4 1N, NaH2PO4 2.5 mM, brought to pH 3.0 by addition of H3PO4
The elution gradient is as follows:
T=0 min: % B=3; T=40 min: % B=60; T=60 min: % B=80
A VLMWH with an average molecular weight of 2500 Da is administered at the target dose of 1.4 mg/kg to human volunteers. Blood samples are withdrawn at the times 0, 0.25 h, 0.5 h, 0.75 h, 1 h, 1.25 h, 1.5 h, 2 h, 2.5 h, 3 h, 3.5 h, 4 h, 4.5 h, 5 h, 6 h, 7 h, 8 h, 9 h, 10 h, 12 h, 14 h and 24 h after administration.
As the VLMWH used is a complex mixture of oligosaccharides, the study was limited to certain components chosen from this mixture.

[1] = 0 h after administration of VLMWH (2500 Da) 1.4 mg/kg
[2] = 0.25 h after administration of VLMWH (2500 Da) 1.4 mg/kg
[3] = 0.5 h after administration of VLMWH (2500 Da) 1.4 mg/kg
[4] = 0.75 h after administration of VLMWH (2500 Da) 1.4 mg/kg
[5] = 1 h after administration of VLMWH (2500 Da) 1.4 mg/kg
[6] = 1.25 h after administration of VLMWH (2500 Da) 1.4 mg/kg
[7] = 1.5 h after administration of VLMWH (2500 Da) 1.4 mg/kg
[8] = 2 h after administration of VLMWH (2500 Da) 1.4 mg/kg
[9] = 2.5 h after administration of VLMWH (2500 Da) 1.4 mg/kg
[10] = 3 h after administration of VLMWH (2500 Da) 1.4 mg/kg
[11] = 3.5 h after administration of VLMWH (2500 Da) 1.4 mg/kg
[12] = 4 h after administration of VLMWH (2500 Da) 1.4 mg/kg
[13] = 4.5 h after administration of VLMWH (2500 Da) 1.4 mg/kg
[14] = 5 h after administration of VLMWH (2500 Da) 1.4 mg/kg
[15] = 6 h after administration of VLMWH (2500 Da) 1.4 mg/kg
[16] = 7 h after administration of VLMWH (2500 Da) 1.4 mg/kg
[17] = 8 h after administration of VLMWH (2500 Da) 1.4 mg/kg
[18] = 9 h after administration of VLMWH (2500 Da) 1.4 mg/kg
[19] = 10 h after administration of VLMWH (2500 Da) 1.4 mg/kg
[20] = 12 h after administration of VLMWH (2500 Da) 1.4 mg/kg
[21] = 14 h after administration of VLMWH (2500 Da) 1.4 mg/kg

| plasma concentration [1] | plasma concentration [2] | plasma concentration [3] | plasma concentration [4] | plasma concentration [5] | plasma concentration [6] | plasma concentration [7] | plasma concentration [8] | plasma concentration [9] | plasma concentration [10] | plasma concentration [11] | plasma concentration [12] | plasma concentration [13] | plasma concentration [14] | plasma concentration [15] | plasma concentration [16] | plasma concentration [17] | plasma concentration [18] | plasma concentration [19] | plasma concentration [20] | SMILES | also measured |
| --- | --- | --- | --- | --- | --- | --- | --- | --- | --- | --- | --- | --- | --- | --- | --- | --- | --- | --- | --- | --- | --- |
| 0 nM | 240 nM | 300 nM | 260 nM | 230 nM | 200 nM | 190 nM | 160 nM | 110 nM | 100 nM | 80 nM | 70 nM | 60 nM | 40 nM | 30 nM | 30 nM | 20 nM | 10 nM | 10 nM | 0 nM | O=C(O)C1=CC(O)C(OS(=O)(=O)O)C(OC2C(COS(=O)(=O)O)OC(O)C(NS(=O)(=O)O)C2O)O1 (stereo not shown) [ΔIs] | plasma concentration [21]: 0 nM |
| 0 nM | 20 nM | 40 nM | 30 nM | 40 nM | 40 nM | 30 nM | 30 nM | 20 nM | 20 nM | 20 nM | 10 nM | 10 nM | 10 nM | 10 nM | 10 nM | 0 nM | 0 nM | 0 nM | 0 nM | O=C(O)C1=CC(O)C(OS(=O)(=O)O)C(OC2C(COS(=O)(=O)O)OC(OC3C(C(=O)O)OC(OC4C(COS(=O)(=O)O)OC(OC5C(C(=O)O)OC(OC6C(COS(=O)(=O)O)OC(O)C(NS(=O)(=O)O)C6O)C(OS(=O)(=O)O)C5O)C(NS(=O)(=O)O)C4O)C(OS(=O)(=O)O)C3O)C(NS(=O)(=O)O)C2O)O1 (stereo not shown) [ΔIsIsIs] | plasma concentration [21]: 0 nM |
| 0 nM | 160 nM | 240 nM | 210 nM | 200 nM | 190 nM | 190 nM | 150 nM | 100 nM | 90 nM | 70 nM | 70 nM | 60 nM | 50 nM | 40 nM | 30 nM | 20 nM | 10 nM | 10 nM | 10 nM | O=C(O)C1=CC(O)C(OS(=O)(=O)O)C(OC2C(COS(=O)(=O)O)OC(OC3C(C(=O)O)OC(OC4C(COS(=O)(=O)O)OC(O)C(NS(=O)(=O)O)C4O)C(OS(=O)(=O)O)C3O)C(NS(=O)(=O)O)C2O)O1 (stereo not shown) [ΔIsIs] | plasma concentration [21]: 0 nM |
| 0 nM | 50 nM | 100 nM | 100 nM | 100 nM | 120 nM | 110 nM | 110 nM | 90 nM | 80 nM | 90 nM | 100 nM | 100 nM | 90 nM | 80 nM | 100 nM | 70 nM | 70 nM | 70 nM | 80 nM | CC(=O)NC1C(OC2C(C(=O)O)OC(OC3C(COS(=O)(=O)O)OC(OC4C(C(=O)O)OC(OC5C(COS(=O)(=O)O)OC(O)C(NS(=O)(=O)O)C5O)C(OS(=O)(=O)O)C4O)C(NS(=O)(=O)O)C3OS(=O)(=O)O)C(O)C2O)OC(COS(=O)(=O)O)C(OC2OC(C(=O)O)=CC(O)C2O)C1O (stereo not shown) [ΔIIaIIsIs] | plasma concentration [21]: 70 nM; plasma concentration (24 h after administration of VLMWH (2500 Da) 1.4 mg/kg): 50 nM |

Reference: patent publication US7575930B2, “Method for analyzing oligosaccharides from blood plasma” (priority 2005, dated 2009)
